Test results taken from patent publication US9139502B2, “Use of an urushiol compound in preparation of pharmaceutical compositions for inhibiting Smad3 phosphorylation” (Southern Hospital, Southern Medical University, priority 2013, dated 2015).

Experiments:
[1] = system: Smad4; assay: Immunofluorescence staining of Smad4 nuclear translocation; type: cell-based, rat; conditions: NRK52E cells, GQ-5 2.5 μM pre-treated 1 h, TGF-β1 10 ng/ml 2 h
Method: (§1) NRK52E cells were cultured in DMEM-Ham's medium supplemented with 10% fetal bovine serum. The cells reached at approximately 50% confluence were used for in vitro experiments. Cells were serum-starved for 12 h, and randomized into 3 groups: (1) Controls; (2) TGF-β1 only; (3) TGF-β1+GQ-5.
(§2) (2) TGF-β1 only: pre-treated with DMSO for 1 h, followed with TGF-β1 (10 ng/ml) for 2 h
(§3) (3) TGF-β1+GQ-5: pre-treated with GQ-5 (2.5 μM) for 1 h, followed with TGF-β1 (10 ng/ml) for 2 h
(§4) GQ-5 was dissolved in DMSO. Cells were treated as described Immunofluorescence staining was performed to examine the nuclear translocation of Smad2, Smad3, and Smad4.

[2] = system: collagen I; assay: Collagen I expression in UUO kidney tissue (real-time PCR, immunohistochemistry, Western blot); type: in vivo, rat; conditions: UUO rats, GQ-5 40 mg/kg daily i.p., sacrificed day 14
Method: Male Sprague-Dawley rats were randomized into 4 groups (n=6 in each group): (1) sham operated rats; (2) UUO rats; (3) UUO+GQ-5 d1 rats; (4) UUO+GQ-5 d7 rats.
(§5) GQ-5 was dissolved in 5% propylene glycol.
(3) UUO+GQ-5 d1 rats: daily intraperitoneal injection of GQ-5 (40 mg/kg body weight) right after UUO;
(4) UUO+GQ-5 d7 rats: daily intraperitoneal injection of GQ-5 (40 mg/kg body weight) 7 days after UUO.
UUO was performed using an established protocol as described. GQ-5 was dissolved in 5% propylene glycol. Rats were administrated with GQ-5 as described before. All the rats were sacrificed 14 days after UUO. HE staining, Masson trichrome staining were performed to examine the renal tissue injury, and Real-time PCR analyses, immunohistochemical staining, and Western blot analyses were performed to examine α-SMA, collagen I and fibronectin expression in kidney tissue

[3] = system: PI3K; assay: Western blot of PI3K phosphorylation in UUO kidneys; type: in vivo, rat; conditions: UUO rats, GQ-5 40 mg/kg daily i.p. right after UUO, sacrificed day 14
Method: (§6) Male Sprague-Dawley rats with body weight 200 to 250 g were randomized into 3 groups (n=6 in each group): (1) sham operated rats; (2) UUO rats; (3) UUO+GQ-5 rats.
as §5
(§7) (3) UUO+GQ-5 rats: daily intraperitoneal injection of GQ-5 (40 mg/kg body weight) right after UUO;
(§8) UUO was performed using an established protocol as described. GQ-5 was dissolved in 5% propylene glycol. Rats were administrated with GQ-5 as described before. All the rats were sacrificed 14 days after UUO. Western blot analyses were performed to examine the Smad4, Smad7 expression and p38, PI3K, ERK phosphorylation.

[4] = system: collagen I; assay: Real-time PCR of TGF-β1-induced collagen I mRNA in vitro; type: cell-based, rat; conditions: NRK 52E and NRK 49F cells, GQ-5 0.1-2.5 μM pre-treated 1 h, TGF-β1 10 ng/ml 36 h
Method: (§9) NRK52E and NRK49F cells were cultured in DMEM-Ham's medium supplemented with 10% fetal bovine serum. The cells reached at approximately 50% confluence were used for in vitro experiments. Cells were serum-starved for 12 h, and randomized into 6 groups: (1) Controls; (2) GQ-5 only; (3) TGF-β1 only; (4) TGF-β1+GQ-5 0.1 μM; (5) TGF-β1+GQ-5 0.5 μM; (6) TGF-β1+GQ-5 2.5 μM
(§10) (2) GQ-5 only: pre-treated with GQ-5 (2.5 μM) for 1 h, followed with DMEM for 36 h
(§11) (3) TGF-β1 only: pre-treated with DMSO for 1 h, followed with TGF-β1 (10 ng/ml) for 36 h
(§12) (4) TGF-β1+GQ-5 0.1 μM: pre-treated with GQ-5 (0.1 μM) for 1 h, followed with TGF-β1 (10 ng/ml) for 36 h
(§13) (5) TGF-β1+GQ-5 0.5 μM: pre-treated with GQ-5 (0.5 μM) for 1 h, followed with TGF-β1 (10 ng/ml) for 36 h
(§14) (6) TGF-β1+GQ-5 2.5 μM: pre-treated with GQ-5 (2.5 μM) for 1 h, followed with TGF-β1 (10 ng/ml) for 36 h
(§15) GQ-5 was dissolved in DMSO. Cells were treated as described. Cells were collected for mRNA extraction. Real-rime PCR was performed to examine the mRNA expression of α-SMA, collagen I and fibronectin.

[5] = system: Smad7; assay: Western blot of Smad7 expression in UUO kidneys; type: in vivo, rat; conditions: UUO rats, GQ-5 40 mg/kg daily i.p. right after UUO, sacrificed day 14
Method: as §6, §5, §7, §8

[6] = system: fibronectin; assay: Real-time PCR of TGF-β1-induced fibronectin mRNA in vitro; type: cell-based, rat; conditions: NRK 52E and NRK 49F cells, GQ-5 0.1-2.5 μM pre-treated 1 h, TGF-β1 10 ng/ml 36 h
Method: as §9, §10, §11, §12, §13, §14, §15

[7] = system: Smad2; assay: Immunofluorescence staining of Smad2 nuclear translocation; type: cell-based, rat; conditions: NRK52E cells, GQ-5 2.5 μM pre-treated 1 h, TGF-β1 10 ng/ml 2 h
Method: as §1, §2, §3, §4

CCCCCC/C=C\CCCCCCCc1cccc(O)c1O [GQ-5, 3-[(Z)-pentadec-8-enyl]catechol]
nuclear translocation of Smad4 [1]: also reduced
up-regulation of collagen I at both mRNA and protein level [2]: significantly inhibited
phosphorylation of PI3K [3]: did not affect
TGF-β1-induced mRNA expression of collagen I [4]: significantly inhibited
expression of Smad7 [5]: did not affect
TGF-β1-induced mRNA expression of fibronectin [6]: significantly inhibited
nuclear translocation of Smad2 [7]: also reduced
